What was measured:
Conditions in all cases: incubation time: 72 h
MFM-223 [1] = assay: normalised viability (% of control), CellTiter-Blue; higher = more viable cells (100 = DMSO, 0 = benzethonium chloride kill control)
Method: (§1)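 DSRT, CellTiter-Blue viability, 72 h incubation. Signal is normalised to DMSO and benzethonium chloride controls. Value is the normalised response at dose 1.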

CAL-85-1 [2] = assay: as above
Method: as §1

MDA-MB-231 [3] = assay: as above
Method: as §1

BT-474 [4] = assay: as above
Method: as §1

MDA-MB-453 [5] = assay: as above
Method: as §1

CAL-148 [6] = assay: as above
Method: as §1

SK-BR-3 [7] = assay: as above
Method: as §1

HCC1599 [8] = assay: as above
Method: as §1

MDA-MB-436 [9] = assay: as above
Method: as §1

Hs578T [10] = assay: as above
Method: as §1

HCC1937 [11] = assay: as above
Method: as §1

HCC1143 [12] = assay: as above
Method: as §1

CAL-120 [13] = assay: as above
Method: as §1

HDQ-P1 [14] = assay: as above
Method: as §1

DU-4475 [15] = assay: as above
Method: as §1

CAL-51 [16] = assay: as above
Method: as §1

BT-549 [17] = assay: as above
Method: as §1

MDA-MB-468 [18] = assay: as above
Method: as §1

MCF-10A = assay: normalised response (% of control), CellTiter-Glo; higher = more viable cells (100 = DMSO, 0 = benzethonium chloride kill control)
Outline: (§2)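 Values are normalised signals, each belonging to one concentration of the series. Breast cancer cells (20 µl suspension) were seeded into 384-well plates with compound at 5 concentrations in 10-fold steps over a compound-specific 10,000-fold range and incubated 72 h. Readouts were CellTox Green fluorescence (485/520 nm), then CellTiter-Glo luminescence after 10 min at room temperature, with each plate set to 0.1 % DMSO as 100 and a positive kill control as 0.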

MFM-223 [19] = assay: as above
Outline: as §2

CAL-85-1 [20] = assay: as above
Outline: as §2

MDA-MB-231 [21] = assay: as above
Outline: as §2

BT-474 [22] = assay: as above
Outline: as §2

MDA-MB-453 [23] = assay: as above
Outline: as §2

CAL-148 [24] = assay: as above
Outline: as §2

SK-BR-3 [25] = assay: as above
Outline: as §2

HCC1599 [26] = assay: as above
Outline: as §2

MDA-MB-436 [27] = assay: as above
Outline: as §2

Hs578T [28] = assay: as above
Outline: as §2

HCC1937 [29] = assay: as above
Outline: as §2

HCC1143 [30] = assay: as above
Outline: as §2

CAL-120 [31] = assay: as above
Outline: as §2

HDQ-P1 [32] = assay: as above
Outline: as §2

DU-4475 [33] = assay: as above
Outline: as §2

CAL-51 [34] = assay: as above
Outline: as §2

BT-549 [35] = assay: as above
Outline: as §2

MDA-MB-468 [36] = assay: as above
Outline: as §2

SMILES | normalised viability (MFM-223 [1]) [%] | normalised viability (CAL-85-1 [2]) [%] | normalised viability (MDA-MB-231 [3]) [%] | normalised viability (BT-474 [4]) [%] | normalised viability (MDA-MB-453 [5]) [%] | normalised viability (CAL-148 [6]) [%] | normalised viability (SK-BR-3 [7]) [%] | normalised viability (HCC1599 [8]) [%] | normalised viability (MDA-MB-436 [9]) [%] | normalised viability (Hs578T [10]) [%] | normalised viability (HCC1937 [11]) [%] | normalised viability (HCC1143 [12]) [%] | normalised viability (CAL-120 [13]) [%] | normalised viability (HDQ-P1 [14]) [%] | normalised viability (DU-4475 [15]) [%] | normalised viability (CAL-51 [16]) [%] | normalised viability (BT-549 [17]) [%] | normalised viability (MDA-MB-468 [18]) [%] | normalised response (MCF-10A) [%] | normalised response (MFM-223 [19]) [%] | normalised response (CAL-85-1 [20]) [%] | normalised response (MDA-MB-231 [21]) [%] | normalised response (BT-474 [22]) [%] | normalised response (MDA-MB-453 [23]) [%] | normalised response (CAL-148 [24]) [%] | normalised response (SK-BR-3 [25]) [%] | normalised response (HCC1599 [26]) [%] | normalised response (MDA-MB-436 [27]) [%] | normalised response (Hs578T [28]) [%] | normalised response (HCC1937 [29]) [%] | normalised response (HCC1143 [30]) [%] | normalised response (CAL-120 [31]) [%] | normalised response (HDQ-P1 [32]) [%] | normalised response (DU-4475 [33]) [%] | normalised response (CAL-51 [34]) [%] | normalised response (BT-549 [35]) [%] | normalised response (MDA-MB-468 [36]) [%]
O=C(/C=C/c1cccc(S(=O)(=O)Nc2ccccc2)c1)NO [Belinostat] (1 nM) | 93.4 | 92.5 | 102 | 106 | 101 | 97.1 | 91.5 | 97.1 | 120 | 109 | 111 | 107 | 97.4 | 84.2 | 93.1 | 102 | 89.5 | 103 | 87 | 89.2 | 97.8 | 95.8 | 91 | 97 | 99.9 | 87.8 | 97.6 | 91.7 | 92.9 | 96.5 | 91.8 | 96.6 | 93.5 | 98.9 | 75.1 | 96.1 | 94.9
O=P1(N(CCCl)CCCl)NCCCO1 (stereo unspecified) [Cyclophosphamide] (4 nM) | 85.1 | 88.2 | 96.9 | 97 | 104 | 119 | 101 | 81.6 | 110 | 102 | 82.9 | 96.8 | 87.3 | 107 | 120 | 105 | 93.2 | 98.9 | 111 | 105 | 97.4 | 96.9 | 93.9 | 115 | 99.6 | 110 | 107 | 94 | 101 | 96.7 | 100 | 93.4 | 97.7 | 103 | 81.2 | 98.5 | 102
C=C1C[C@@H]2[C@H](CC[C@]3(C)C(=O)CC[C@@H]23)[C@@]2(C)C=CC(=O)C=C12 [Exemestane] (1 nM) | 88.7 | 88.2 | 93.5 | 81.5 | 99.2 | 89.2 | 91.5 | 84.5 | 95.2 | 112 | 102 | 85.9 | 86.5 | 100 | 90.9 | 95.2 | 114 | 117 | 112 | 108 | 97.2 | 105 | 97.6 | 108 | 98.6 | 107 | 112 | 134 | 106 | 93.6 | 102 | 101 | 101 | 106 | 88.6 | 91.6 | 101
O=C(Nc1ccncc1)C(=O)c1cn(Cc2ccc(Cl)cc2)c2ccccc12 [Indibulin] (1 nM) | 97 | 98.9 | 119 | 104 | 103 | 111 | 102 | 109 | 161 | 111 | 95.8 | 95.7 | 92.1 | 77.9 | 121 | 106 | 100 | 102 | 101 | 107 | 106 | 102 | 103 | 113 | 109 | 110 | 113 | 103 | 100 | 100 | 97.2 | 99.1 | 106 | 109 | 59.7 | 104 | 103
S=P(N1CC1)(N1CC1)N1CC1 [Thio-TEPA] (10 nM) | 101 | 92.8 | 94.8 | 100 | 104 | 102 | 92.1 | 95.7 | 99.2 | 106 | 90 | 97.9 | 86.2 | 109 | 88.7 | 94 | 106 | 107 |  |  |  |  |  |  |  |  |  |  |  |  |  |  |  |  |  |  | 

Reference: the supplement of paper PMC4862054
